Measurements from patent publication US20230201183A1, “METHODS TO […] ENHANCE MULTIPLE […] PROTEOSTASIS […] TO TREAT NEURODEGENERATION AND STORAGE DISEASES” (Northwestern University, priority 2021, published 2023).

Assays:
[1] = test system: midbrain neurons from a GD (N370S/84GG) and a PD patient that harbors a GBA1 mutation (N370S/wt); assay: GCase maturation and α-syn western blot in GBA1 mutant patient neurons; conditions: GD (N370S/84GG) and GBA-PD (N370S/wt) neurons; two weeks
A53T iPSn [2] = assay: Neurofilament toxicity assay (neuron viability); type: cell-based, human
Method: iPSC-neurons 96 well format were fixed in 4% paraformaldehyde in PBS for 20 minutes, followed by incubation in 0.3% Triton X-100 (PBS) for 20 min. The cells were then blocked with Odyssey blocking buffer (Li-Cor) for 1 h. Anti-neurofilament antibody (1:1000, mouse IgG 2H3, Developmental Studies Hybridoma Bank, University of Iowa, Iowa City, Iowa) was incubated overnight in blocking buffer at 4° C., followed by washing in PBS with 0.1% Tween for 20 min. IRdye 800-conjugated anti-mouse IgG antibodies (1:1000 dilution, Li-Cor) was incubated in blocking buffer for 1 hour and CellTag™ 700 (Li-Cor) was also added for normalization. The Cells were washed four times in PBS-0.1% Tween and scanned on an Odyssey infrared imaging system (Li-Cor). Neurofilament intensity was determined by Image Studio software (version 2.1 Li-Cor) and normalized to […].
(§1) The transfection was performed with X-tremeGENE transfection reagent (Roche #6366236001) as described previously (Cuddy et al., 2019). Lentiviral particles were collected from the media and concentrated using Lenti-X concentrator (Clontech, #631232). […] The viral particle number and the number of plated cells was used to calculate the multiplicity of infection (MOI). For GFPT2 Overexpression the A53T neurons were infected at MOI-3 and harvested 2 weeks post-infection. […]

A53T iPSn [3] = assay: GCase solubility and maturation (sequential extraction, Endo H, western blot); type: cell-based, human; conditions: 10 mM GlcNAc for 7 days
Method: (§2) Protein extraction was done as described in detail (Stojkovska and Mazzulli, 2021). […] Supernatant was discarded and the cell pellets were subjected to homogenization in 1% Triton X-100 buffer (1% Triton X-100, 20 mM HEPES pH 7.4, 150 mM NaCl, 10% glycerol, 1 mM EDTA, 1.5 mM MgCl2, 1 mM phenylmethanesulfonyl fluoride (PMSF), 50 mM NaF, 2 mM Na orthovanadate, and a protease inhibitor cocktail (Roche diagnostics, https://www.roche.com, #11-836-170-001)) by homogenization. […] Protein band intensities was quantified by the ImageStudio software ver 3.1.
Analysis of post-ER GCase: This assay was performed as described in detail (Cuddy and Mazzulli, 2021). Briefly, 40 ug of lysate were subjected to Endoglycosidase H (Endo H) digestion as per the manufacturer's protocol (New England Biolabs, https://www.neb.com) at 37° C. for 2 h. Duplicate samples without enzyme were incubated under the same conditions serving as control (undigested samples). […] Endo H resistant bands migrating 62-64 kDa were measured as post-ER forms and maturation was calculated by quantifying the post-ER/ER ratios. Quantification was performed on Image Studio software (Licor). […] Standard error of the mean values were graphed, analyzed by student's t-test, and p values <0.05 were considered significant. […]

A53T iPSn [4] = assay: Hex B glycosylation and maturation by western blot; type: cell-based, human
Method: as §2
(§3) . The transfection was performed with X-tremeGENE transfection reagent (Roche #6366236001) as described previously (Cuddy et al., 2019). Lentiviral particles were collected from the media and concentrated using Lenti-X concentrator (Clontech, #631232). […] The viral particle number and the number of plated cells was used to calculate the multiplicity of infection (MOI). For GFPT2 Overexpression the A53T neurons were infected at MOI-3 and harvested 2 weeks post-infection. A53T neurons were infected with XBP1^s lentivirus at MOI-1 and harvested 16 days post-infection. […]
(§4) Neurons were treated with or without 5 ug/ml tunicamycin (EMD Millipore/Calbiochem) for 24 hrs. Cells were extracted in 1% Triton X-100 buffer and analyzed by western blot for Hex B, Con-A, or GFPT2 as described in “Sequential protein extraction and western blotting analysis”. […]

lysosomal GCase = assay: Live-cell lysosomal GCase activity assay; type: cell-based, human; conditions: live A53T patient neurons; 10 mM GlcNAc
Method: Live-cell lysosomal GCase activity assay. The procedure and analysis method for the activity assay has been previously described in detail (Cuddy and Mazzulli, 2021). Briefly, one day prior to the assay, cells were treated with 1 mg/ml cascade dextran blue (Life Technologies) in a 96-well plate for 24 hours. This was followed by treatment of cells with DMSO or 200 nM bafilomycin A1 for 1 hour at 37° C. The cells were subjected to 1 hour pulse chase with an artificial fluorescent GCase substrate, 100 ug/ml 5-(pentafluoro-benzoylamino) fluorescein di-ß-D-glucopyranoside (PFB-FDGluc; Life Technologies), at 37° C. The fluorescence signal was measured every 30 minutes for the span of 3-4 hours on a plate reader (Ex=485 nm, Em=530 nm, for the GCase substrates; Ex=400 nm, Em=430 nm for cascade dextran blue). For the analysis, the GCase fluorescence signal was normalized to either lysosomal mass by using cascade dextran blue signal or total cell volume by quantifying CellTag 700 staining signal.
as §1, with “(MOI).” for “(MOI). For GFPT2 Overexpression the A53T neurons were infected at MOI-3 and harvested 2 weeks post-infection.”

A53T iPSn [5] = assay: α-syn sequential extraction/western blot; type: cell-based, human; conditions: 10 mM GlcNAc for 7 days
Method: as §2
The transfection was performed with X-tremeGENE transfection reagent (Roche #6366236001) as described previously (Cuddy et al., 2019). Lentiviral particles were collected from the media and concentrated using Lenti-X concentrator (Clontech, #631232). […] The viral particle number and the number of plated cells was used to calculate the multiplicity of infection (MOI). For GFPT2 Overexpression the A53T neurons were infected at MOI-3 and harvested 2 weeks post-infection. A53T neurons were infected with XBP1^s lentivirus at MOI-1 and harvested 16 days post-infection. Neurons infected with lentivirus expressing GFP was used as control.
iPSC neurons were supplemented with or without GlcNAc (A3286-sigma) at 10 mM for 7 days in PBS.

A53T iPSn [6] = assay: N-glycosylated proteins by Con A-biotin western blot; type: cell-based, human
Method: as §2, §3, §4

[7] = test system: SNCA-3X DA neurons and α-syn overexpressing cell lines; assay: ER stress induction, UPR markers (mRNA/protein); type: cell-based, human; conditions: for XBP1-S / mRNA/protein levels of ER chaperones including GRP78, GRP94, and CANX: 30 nM Tg or 50 ng/ml BFA for 24 hours
Method: Total RNA was isolated from cells in a 24 or 12 well format using an RNeasy Mini Prep kit (QIAGEN). cDNA was synthesized by reverse transcriptase PCR (RT-PCR) using the RevertAid First Strand cDNA synthesis kit (Thermo Fisher Scientific). Quantitative PCR was performed on the Applied Biosystems 7500 Fast system using the cDNA and pre-designed TaqMan-primer probes for the target genes. The target mRNA expression was quantified relative to GAPDH or […] using the delta-delta-Ct method, and represented as a fold change.

wt iPSn = assay: Quantitative RT-PCR mRNA analysis; type: cell-based, human; conditions: tunicamycin 5 ug/ml, 24 h
Method: (§5) Measurement of RNA. Total RNA was extracted and isolated using the PureLink RNA Mini Kit (Thermofisher Scientific). cDNA was synthesized using the RevertAid First Strand cDNA Synthesis Kit (Thermofisher Scientific). Real-time PCR was performed on an Applied Biosystems 7500 Fast system using pre-designed Taqman-primer probe sets: DPAGT1 (Hs00609752_m1), GFPT2 (Hs01049570_m1), XBP1U (Hs02856596_m1), XBP1s (Hs03929085_g1), GRP78 (Hs99999174_m1), HSP90B1/GRP94 (Hs00427665_g1), GBA1 (Hs00164683_m1), HexB (Hs01077594_m1) and ACTB (Hs01060665_g1). The quantifications represent the fold change of target mRNA expression normalized to beta-actin (ACTB) levels by delta-Ct method. The values are mean and s.e.m of biological replicates (n=3-6) with two technical replicates for each.
(§6) Neurons were treated with or without 5 ug/ml tunicamycin (EMD Millipore/Calbiochem) for 24 hrs. Cells were extracted in 1% Triton X-100 buffer and analyzed by western blot for Hex B, Con-A, or GFPT2 as described in “Sequential protein extraction and western blotting analysis”. For mRNA measurement, total RNA was extracted and isolated as described in “Measurement of mRNA.” cDNA was synthesized and subjected to real-time PCR using Taqman-primer probe sets for GFPT2, XBP1U, and GRP78.

isogenic controls = assay: GFPT2 western blot; type: cell-based, human; conditions: isogenic controls of SNCA-3x; tunicamycin
Method: as §2, §6

SNCA-3x iPSn = assay: GFPT2 western blot; type: cell-based, human; conditions: tunicamycin
Method: as §2, §6

isogenic control iPSn = assay: Hex B glycosylation by western blot; type: cell-based, human; conditions: control cells; tunicamycin
Method: as §2, §6

A53T iPSn [8] = assay: Quantitative RT-PCR mRNA analysis; type: cell-based, human
Method: as §5
. The transfection was performed with X-tremeGENE transfection reagent (Roche #6366236001) as described previously (Cuddy et al., 2019). Lentiviral particles were collected from the media and concentrated using Lenti-X concentrator (Clontech, #631232). […]
as §4

control iPSn = assay: N-glycosylated proteins by Con A-biotin western blot; type: cell-based, human; conditions: tunicamycin 5 ug/ml, 24 hours
Method: as §2, §6

[9] = test system: wild-type or isogenic control neurons; assay: ER stress induction and insoluble GCase in control neurons; type: cell-based, human; conditions: 30 nM Tg for 24 hours

Molecule: C#Cc1cccc(-c2cc(=O)n(C)c3ccc([C@](O)(c4ccc(Cl)cc4)c4cncn4C)cc23)c1 [FTI, 6-[(R)-(4-chlorophenyl)hydroxy(1-methyl-1H-imidazol-5-yl)methyl]-4-(3-ethynylphenyl)-1-methyl-2(1H)-Quinolinone]
- GCase maturation [1]: minimal effects
- α-syn levels [1]: minimal effects

Molecule: CC(=O)NC1C(O)[C@H](O)C(CO)O[C@H]1O (stereo partly drawn) [GlcNAc, β-D-(acetylamino)-2-deoxy-glucopyranose]
- neuron viability (neurofilament / neurite content) (A53T iPSn [2]): improved neuron viability
- increase in the levels of mature, soluble GCase (A53T iPSn [3]): 2 fold
- glycosylated and mature forms of Hex B (A53T iPSn [4]; 10 mM GlcNAc for 7 days): enhanced the glycosylated and mature forms of Hex B
- increase of GCase activity levels (lysosomal GCase): ~2 fold
- reduction in pathological α-syn (A53T iPSn [5]): ~75%
- N-glycosylated proteins (Con A) (A53T iPSn [6]): completely restored the levels of N-glycosylation to control levels

Molecule: C[C@H]1CCC/C=C/[C@@H]2C[C@H](O)C[C@H]2[C@H](O)/C=C/C(=O)O1 [BFA]
- XBP1-S [7]: dramatic upregulation of XBP1-S
- mRNA/protein levels of ER chaperones including GRP78, GRP94, and CANX [7]: significantly increased mRNA/protein levels of ER chaperones

Molecule: tunicamycin
- upregulation of GFPT2 mRNA (wt iPSn): ~2 fold
- elevation of GFPT2 protein (isogenic controls): 60%
- GFPT2 protein (SNCA-3x iPSn): no effect
- Hex B response to tunicamycin (A53T iPSn [4]; A53T iPSn compared to controls): reduced response
- Hex B glycosylation (isogenic control iPSn): blocked Hex B glycosylation
- UPR-responsive transcripts XBP1 and GRP78 (A53T iPSn [8]; A53T iPSn versus Corr, tunicamycin): less responsive
- upregulation of GFPT2 mRNA (A53T iPSn [8]; A53T iPSn, tunicamycin 5 ug/ml, 24 h): ~1.2 fold
- reduction of N-glycans (control iPSn): ~50%
- N-glycosylated proteins (Con A) (A53T iPSn [6]): no effect

Molecule: C/C=C(/C)C(=O)O[C@H]1C(C)=C2[C@H]([C@@H]1OC(=O)CCCCCCC)[C@@](C)(OC(C)=O)C[C@H](OC(=O)CCC)[C@@]1(O)[C@H]2OC(=O)[C@@]1(C)O [Tg]
- XBP1-S [7]: dramatic upregulation of XBP1-S
- mRNA/protein levels of ER chaperones including GRP78, GRP94, and CANX [7]: significantly increased mRNA/protein levels of ER chaperones
- phospho-eIF2α ([7]; isogenic controls and SNCA-3X DA neurons, 30 nM Tg): increased phospho-eIF2α to a similar degree
- GRP78 expression (ER stress) [9]: increased GRP78 expression
